Laboratory results: the supplement of paper PMC10307832

compound: NCC(=O)Nc1ccc(-n2nc(C(F)(F)F)cc2-c2ccc3c(ccc4ccccc43)c2)cc1 + C[C@@H](Oc1cc(-c2cnn(C3CCNCC3)c2)cnc1N)c1c(Cl)ccc(F)c1Cl [Crizotinib] (partner 1 µM); test: relative viability (nuclei count vs DMSO), 5 days (fraction); higher = more cells survive; details: first compound 2 µM
Procedure, shortened: (§1)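 Dosing by pin tool came one day after lung cancer cell lines were seeded in 1536-well plates, using either one drug or a fixed anchor-drug dose plus five library-drug doses (not always all listed) in √10 steps. After 5 days, nuclei were counted on 4× images. Relative viability is treated-well nuclei count divided by vehicle-well nuclei count, and values are medians of duplicate plates.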

| Cell Line | relative viability |
| --- | --- |
| NCI-H3122 | 0.279 |
| NCI-H1437 | 0.894 |
| NCI-H1755 | 0.862 |
| HCC-15 | 0.768 |
| PC-14 | 0.937 |
| EKVX | 0.868 |
| LC-2-ad | 0.389 |
| NCI-H1975 | 0.914 |

compound: C1CSC2=C(C(=O)N1)SC3=C2C=C(C=C3)O [kb NB 142-70] + Nc1ncn([C@H]2C[C@H](O)[C@@H](CO)O2)c(=O)n1 [Decitabine] (partner 2 µM); test: as above; details: first compound 0.1 µM
Procedure, shortened: as §1

| Cell Line | relative viability |
| --- | --- |
| ChaGo-K-1 | 0.509 |
| NCI-H2405 | 0.727 |
| HOP-62 | 0.217 |
| HCC-44 | 0.946 |
| LU99A | 1.09 |
| BEN | 0.776 |
| HARA | 0.538 |
| HCC-78 | 0.683 |
| NCI-H322M | 0.675 |
| LCLC-97TM1 | 0.268 |
| A-427 | 0.579 |
| NCI-H441 | 0.259 |
| NCI-H1734 | 0.525 |
| NCI-H460 | 0.538 |
| NCI-H2347 | 0.651 |
| 201T | 0.892 |
| NCI-H1915 | 0.263 |

| Cell Line | relative viability |
| --- | --- |
| HCC-827 | 0.31 |
| LXF-289 | 0.392 |
| NCI-H23 | 0.34 |
| NCI-H647 | 0.383 |
| NCI-H1651 | 0.61 |
| EPLC-272H | 0.404 |
| NCI-H1792 | 0.536 |
| NCI-H1355 | 0.39 |
| NCI-H3122 | 0.487 |
| NCI-H1437 | 0.578 |
| NCI-H1755 | 0.7 |
| HCC-15 | 0.618 |
| PC-14 | 0.187 |
| EKVX | 0.369 |
| LC-2-ad | 0.798 |
| NCI-H1975 | 0.431 |

same assay, conditions: first compound 1 µM

| Cell Line | relative viability |
| --- | --- |
| ChaGo-K-1 | 0.515 |
| NCI-H2405 | 0.783 |
| HOP-62 | 0.203 |
| HCC-44 | 0.993 |
| LU99A | 0.9 |
| BEN | 0.741 |
| HARA | 0.372 |
| HCC-78 | 0.727 |
| NCI-H322M | 0.72 |
| LCLC-97TM1 | 0.205 |
| A-427 | 0.568 |
| NCI-H441 | 0.213 |
| NCI-H1734 | 0.46 |
| NCI-H460 | 0.606 |
| NCI-H2347 | 0.613 |
| 201T | 0.867 |
| NCI-H1915 | 0.246 |

| Cell Line | relative viability |
| --- | --- |
| HCC-827 | 0.288 |
| LXF-289 | 0.369 |
| NCI-H23 | 0.266 |
| NCI-H647 | 0.477 |
| NCI-H1651 | 0.607 |
| EPLC-272H | 0.303 |
| NCI-H1792 | 0.536 |
| NCI-H1355 | 0.355 |
| NCI-H3122 | 0.371 |
| NCI-H1437 | 0.55 |
| NCI-H1755 | 0.729 |
| HCC-15 | 0.694 |
| PC-14 | 0.284 |
| EKVX | 0.311 |
| LC-2-ad | 0.769 |
| NCI-H1975 | 0.388 |

same assay, conditions: first compound 3.162 µM

| Cell Line | relative viability |
| --- | --- |
| ChaGo-K-1 | 0.461 |
| NCI-H2405 | 0.648 |
| HOP-62 | 0.226 |
| HCC-44 | 1.01 |
| LU99A | 0.708 |
| BEN | 0.588 |
| HARA | 0.286 |
| HCC-78 | 0.677 |
| NCI-H322M | 0.616 |
| LCLC-97TM1 | 0.135 |
| A-427 | 0.55 |
| NCI-H441 | 0.162 |
| NCI-H1734 | 0.348 |
| NCI-H460 | 0.354 |
| NCI-H2347 | 0.58 |
| 201T | 0.825 |
| NCI-H1915 | 0.23 |

| Cell Line | relative viability |
| --- | --- |
| HCC-827 | 0.274 |
| LXF-289 | 0.365 |
| NCI-H23 | 0.251 |
| NCI-H647 | 0.36 |
| NCI-H1651 | 0.491 |
| EPLC-272H | 0.303 |
| NCI-H1792 | 0.458 |
| NCI-H1355 | 0.342 |
| NCI-H3122 | 0.419 |
| NCI-H1437 | 0.536 |
| NCI-H1755 | 0.727 |
| HCC-15 | 0.553 |
| PC-14 | 0.193 |
| EKVX | 0.364 |
| LC-2-ad | 0.772 |
| NCI-H1975 | 0.295 |

compound: C1CSC2=C(C(=O)N1)SC3=C2C=C(C=C3)O [kb NB 142-70] + CC(C)C[C@H](NC(=O)[C@H](Cc1ccccc1)NC(=O)c1cnccn1)B(O)O [Bortezomib] (partner 0.002 µM); test: as above; details: first compound 0.1 µM
Procedure, shortened: as §1

| Cell Line | relative viability |
| --- | --- |
| ChaGo-K-1 | 1.06 |
| NCI-H2405 | 0.969 |
| HOP-62 | 0.919 |
| HCC-44 | 0.952 |
| LU99A | 1.29 |
| BEN | 0.942 |
| HARA | 1.15 |
| HCC-78 | 0.486 |
| NCI-H322M | 1.2 |
| LCLC-97TM1 | 0.853 |
| A-427 | 1.01 |
| NCI-H441 | 0.323 |
| NCI-H1734 | 0.889 |
| NCI-H460 | 1.05 |
| NCI-H2347 | 1.03 |
| 201T | 1.09 |
| NCI-H1915 | 0.998 |

| Cell Line | relative viability |
| --- | --- |
| HCC-827 | 1.09 |
| LXF-289 | 1.02 |
| NCI-H23 | 1.1 |
| NCI-H647 | 0.987 |
| NCI-H1651 | 0.966 |
| EPLC-272H | 0.926 |
| NCI-H1792 | 0.992 |
| NCI-H1355 | 1.24 |
| NCI-H3122 | 1.09 |
| NCI-H1437 | 0.485 |
| NCI-H1755 | 1.02 |
| HCC-15 | 0.972 |
| PC-14 | 0.896 |
| EKVX | 0.994 |
| LC-2-ad | 1.12 |
| NCI-H1975 | 0.33 |

same assay, conditions: first compound 1 µM

| Cell Line | relative viability |
| --- | --- |
| ChaGo-K-1 | 1.1 |
| NCI-H2405 | 0.993 |
| HOP-62 | 1 |
| HCC-44 | 0.94 |
| LU99A | 0.995 |
| BEN | 0.669 |
| HARA | 1.06 |
| HCC-78 | 0.543 |
| NCI-H322M | 1.25 |
| LCLC-97TM1 | 0.563 |
| A-427 | 1.05 |
| NCI-H441 | 0.793 |
| NCI-H1734 | 0.867 |
| NCI-H460 | 1.08 |
| NCI-H2347 | 0.808 |
| 201T | 1.17 |
| NCI-H1915 | 1 |
